The values that follow are results of earlier work, collected in patent US20260272874A1, “COMPOUNDS FOR THE TREATMENT AND PREVENTION OF VIRAL DISEASES” (priority 2023, published 2026).

In series [1] the test system is coronavirus.
The test system of series [2] is SARS-CoV-2.
Series [3] deals with RNA helicase enzyme eIF4A. The settings on record: previous studies.
The subject of series [4] is corona viruses, SARS and MERS virus.

In the case of 4E2RCat, the coronavirus replication result in series [1] is listed as “capable of blocking coronavirus replication”.

As for `COc1cc2c(c(OC)n1)[C@]1(O)[C@H](O)[C@H](CN(C)C)[C@@H](c3ccccc3)[C@]1(c1ccc(C#N)cc1)O2` [Zotatifin], the “antiviral activity against SARS-CoV-2” value in series [2] was “shows antiviral activity”.

As to Silvesterol, the “inhibition of RNA helicase enzyme eIF4A” value in series [3] was “potent and selective inhibitor”. For the same compound, the antiviral activity entry in series [4] is reported as “broad spectrum antiviral activity”.
